According to ChEMBL document CHEMBL4145489, “Synthesis and anti-tumor activity of EF24 analogues as IKKβ inhibitors” (Eur J Med Chem, 2018):
Each block holds one molecule with its values, some of them ahead of it. The source made the active and inactive calls. The rule behind the calls is not given here.

Tests used:
SGC-7901 [1] = assay: Antiproliferative activity against human SGC7901 cells after 72 hrs by MTT assay; format: functional, cell-based; details: SGC-7901, 72 h
A549 = assay: Antiproliferative activity against human A549 cells after 72 hrs by MTT assay; format: functional, cell-based; details: A549, 72 h
MGC-803 [2] = assay: Antiproliferative activity against human MGC803 cells after 72 hrs by MTT assay; format: functional, cell-based; details: MGC-803, 72 h
HeLa 229 = assay: Antiproliferative activity against human HeLa 229 cells after 72 hrs by MTT assay; format: functional, cell-based; details: HeLa 229, 72 h
[3] = target: T1, Inhibitor of NF-kappa-B kinase alpha/beta (Homo sapiens) (UniProt O14920+O15111); assay: Inhibition of TNF-alpha induced IKKalpha/beta phosphorylation in human MGC-803 cells preincubated for 1 hr followed by TNF-alpha stimulation and measured after 10 mins by Western blot analysis; format: cell-based
SGC-7901 [4] = assay: Induction of apoptosis in human SGC7901 cells assessed as decrease in Bcl-2 levels at 1 to 10 uM after 12 hrs by Western blot analysis; format: functional, cell-based
SGC-7901 [5] = assay: Cell cycle arrest in human SGC7901 cells assessed as accumulation of cells at G2/M phase at 1 to 10 uM after 12 hrs by propidium iodide staining-based flow cytometric analysis; format: functional
[6] = target: T1, Inhibitor of NF-kappa-B kinase alpha/beta (Homo sapiens); assay: Inhibition of TNF-alpha induced IKKalpha/beta phosphorylation in human SGC-7901 cells preincubated for 1 hr followed by TNF-alpha stimulation and measured after 10 mins by Western blot analysis; format: cell-based
SGC-7901 [7] = assay: Induction of apoptosis in human SGC7901 cells assessed as increase in cleaved caspase-3 levels at 1 to 10 uM after 12 hrs by Western blot analysis; format: functional, cell-based
SGC-7901 [8] = assay: Cell cycle arrest in human SGC7901 cells assessed as decrease in Cdc2 p34 levels after 12 hrs by Western blot analysis; format: functional, cell-based
MGC-803 [9] = assay: Induction of apoptosis in human MGC803 cells after 12 hrs by Annexin V-FITC staining-based FACS analysis; format: functional, cell-based
[10] = target: T2, Inhibitor of nuclear factor kappa-B kinase subunit beta (Homo sapiens) (UniProt O14920); assay: Inhibition of IKKbeta in human SGC-7901 cells assessed as decrease in TNF-alpha induced p65 nuclear translocation at 10 uM preincubated for 1 hr followed by TNF-alpha stimulation and measured after 1 hr by DAPI staining-based fluorescence microscopic analysis; format: cell-based
T2 sequence (whole entry): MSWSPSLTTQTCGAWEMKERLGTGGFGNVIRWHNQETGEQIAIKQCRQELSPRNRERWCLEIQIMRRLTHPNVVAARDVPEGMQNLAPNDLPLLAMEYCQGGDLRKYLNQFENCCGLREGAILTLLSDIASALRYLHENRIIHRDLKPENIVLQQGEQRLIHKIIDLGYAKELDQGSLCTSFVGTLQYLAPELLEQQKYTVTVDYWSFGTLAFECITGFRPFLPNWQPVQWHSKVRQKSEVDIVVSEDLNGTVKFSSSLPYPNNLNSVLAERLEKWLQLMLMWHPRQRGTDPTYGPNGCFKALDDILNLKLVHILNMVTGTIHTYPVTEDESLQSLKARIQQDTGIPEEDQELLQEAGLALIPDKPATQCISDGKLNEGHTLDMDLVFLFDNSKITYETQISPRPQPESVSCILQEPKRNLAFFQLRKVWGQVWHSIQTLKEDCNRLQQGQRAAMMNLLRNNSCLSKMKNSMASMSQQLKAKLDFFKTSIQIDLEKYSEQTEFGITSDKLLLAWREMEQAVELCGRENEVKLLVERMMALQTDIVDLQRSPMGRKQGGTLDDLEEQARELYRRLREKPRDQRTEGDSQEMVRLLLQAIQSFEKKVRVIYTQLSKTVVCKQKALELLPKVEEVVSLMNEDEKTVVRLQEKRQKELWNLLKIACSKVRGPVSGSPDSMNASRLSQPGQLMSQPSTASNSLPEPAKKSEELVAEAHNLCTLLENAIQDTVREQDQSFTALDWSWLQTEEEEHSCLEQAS

MGC-803 [11] = assay: Induction of apoptosis in human MGC803 cells assessed as increase in cleaved caspase-3 levels at 1 to 10 uM after 12 hrs by Western blot analysis; format: functional, cell-based
Mus musculus [12] = assay: In vivo inhibition of IKKalpha/beta phosphorylation in tumor of athymic nude mouse xenografted with human SGC7901 cells at 10 mg/kg, ip administered every other day for 22 days by Western blot method; format: functional, organism-based
MGC-803 [13] = assay: Cell cycle arrest in human MGC803 cells assessed as decrease in Cdc2 p34 levels after 12 hrs by Western blot analysis; format: functional, cell-based
SGC-7901 [14] = assay: Induction of apoptosis in human SGC7901 cells at 5 uM after 12 hrs by Annexin V-FITC staining-based FACS analysis (reference value: 1.56%); format: functional
[15] = target: T2, Inhibitor of nuclear factor kappa-B kinase subunit beta (Homo sapiens); assay: Inhibition of IKKbeta in human SGC-7901 cells assessed as TNF-alpha induced I-kappa-B-alpha degradation at 1 to 10 uM preincubated for 1 hr followed by TNF-alpha stimulation and measured after 10 mins by Western blot analysis; format: cell-based
SGC-7901 [16] = assay: Induction of apoptosis in human SGC7901 cells after 12 hrs by Annexin V-FITC staining-based FACS analysis; format: functional, cell-based
Mus musculus [17] = assay: Downregulation of Bcl-2 levels in tumor of athymic nude mouse xenografted with human SGC7901 cells at 10 mg/kg, ip administered every other day for 22 days by Western blot method; format: functional, organism-based
MGC-803 [18] = assay: Induction of apoptosis in human MGC803 cells assessed as decrease in Bcl-2 levels at 1 to 10 uM after 12 hrs by Western blot analysis; format: functional, cell-based
SGC-7901 [19] = assay: Induction of apoptosis in human SGC7901 cells at 1 uM after 12 hrs by Annexin V-FITC staining-based FACS analysis (reference value: 1.56%); format: functional
MGC-803 [20] = assay: Cell cycle arrest in human MGC803 cells assessed as accumulation of cells at G2/M phase at 1 to 10 uM after 12 hrs by propidium iodide staining-based flow cytometric analysis; format: functional
MGC-803 [21] = assay: Induction of apoptosis in human MGC803 cells at 1 uM after 12 hrs by Annexin V-FITC staining-based FACS analysis (reference value: 1.17%); format: functional
MGC-803 [22] = assay: Induction of apoptosis in human MGC803 cells at 5 uM after 12 hrs by Annexin V-FITC staining-based FACS analysis (reference value: 1.17%); format: functional
Mus musculus [23] = assay: Toxicity in athymic nude mouse xenografted with human SGC7901 cells assessed as body weight loss at 10 mg/kg, ip administered every other day for 22 days; format: organism-based; details: in vivo, 528 h
SGC-7901 [24] = assay: Antitumor activity against human SGC7901 cells xenografted in athymic nude mouse assessed as tumor growth inhibition at 10 mg/kg, ip administered every other day for 22 days; format: functional, organism-based
Mus musculus [25] = assay: In vivo inhibition of IKKalpha/beta in tumor of athymic nude mouse xenografted with human SGC7901 cells assessed as I-kappa-B-alpha degradation at 10 mg/kg, ip administered every other day for 22 days by Western blot method; format: functional, organism-based
SGC-7901 [26] = assay: Cell cycle arrest in human SGC7901 cells assessed as decrease in cyclinB1 levels at 1 to 10 uM after 12 hrs by Western blot analysis; format: functional, cell-based
MGC-803 [27] = assay: Induction of apoptosis in human MGC803 cells at 10 uM after 12 hrs by Annexin V-FITC staining-based FACS analysis (reference value: 1.17%); format: functional
[28] = target: T2, Inhibitor of nuclear factor kappa-B kinase subunit beta (Homo sapiens); assay: Inhibition of IKKbeta in human MGC-803 cells assessed as TNF-alpha induced I-kappa-B-alpha degradation at 1 to 10 uM preincubated for 1 hr followed by TNF-alpha stimulation and measured after 10 mins by Western blot analysis; format: cell-based
SGC-7901 [29] = assay: Induction of apoptosis in human SGC7901 cells at 10 uM after 12 hrs by Annexin V-FITC staining-based FACS analysis (reference value: 1.56%); format: functional
MGC-803 [30] = assay: Cell cycle arrest in human MGC803 cells assessed as decrease in cyclinB1 levels at 1 to 10 uM after 12 hrs by Western blot analysis; format: functional, cell-based
[31] = target: T3, Inhibitor of nuclear factor kappa-B kinase subunit beta (Homo sapiens, UniProt O14920); assay: Inhibition of IKKbeta (unknown origin) using FAM-P22 as substrate preincubated for 10 mins followed by substrate addition and measured after 1 hr by mobility shift assay
T3 sequence (O14920 whole entry): T2 sequence (whole entry)

Compound: O=C1/C(=C/c2ccccc2F)COC/C1=C\c1ccccc1F
IC50 [31]: 19600 nM

Compound: Cc1ccc2nc(NCCN)c3ncc(C)n3c2c1.Cl
IC50 (SGC-7901 [1]): 8300 nM
IC50 (A549): 9300 nM
IC50 (MGC-803 [2]): 14200 nM
Activity (MGC-803 [27]): 12.61%
Activity (SGC-7901 [29]): 19.49%
IC50 (HeLa 229): 9400 nM

Now from value to molecule, other results behind:

IC50 (SGC-7901 [1]): 1000 nM
IC50 (A549): 2800 nM
IC50 (MGC-803 [2]): 2000 nM
IC50 (HeLa 229): 1900 nM
Compound: O=C1/C(=C/c2ccccc2F)CNC/C1=C\c1ccccc1F

inhibition [3]: Dose-dependent effect
inhibition [6]: Dose-dependent effect
inhibition [10]: Active
IC50 (SGC-7901 [1]): 1200 nM
inhibition [15]: Active
IC50 (A549): 2100 nM
IC50 (MGC-803 [2]): 1800 nM
inhibition [28]: Active
IC50 (HeLa 229): 1800 nM
Compound: O=C1/C(=C/c2ccccc2Br)CNC/C1=C\c1ccccc1Br
Activity (SGC-7901 [4]): Active
Activity (SGC-7901 [5]): Active
Activity (SGC-7901 [7]): Active
Activity (SGC-7901 [8]): Dose-dependent effect
Activity (MGC-803 [9]): Dose-dependent effect
Activity (MGC-803 [11]): Active
inhibition (Mus musculus [12]): Active
Activity (MGC-803 [13]): Dose-dependent effect
Activity (SGC-7901 [14]): 27.9%
Activity (SGC-7901 [16]): Dose-dependent effect
Activity (Mus musculus [17]): Active
Activity (MGC-803 [18]): Active
Activity (SGC-7901 [19]): 8.95%
Activity (MGC-803 [20]): Active
Activity (MGC-803 [21]): 9.88%
Activity (MGC-803 [22]): 16.14%
Activity (Mus musculus [23]): Non-Toxic
TGI (SGC-7901 [24]): Active
inhibition (Mus musculus [25]): Active
Activity (SGC-7901 [26]): Active
Activity (MGC-803 [27]): 32.1%
Activity (SGC-7901 [29]): 45.3%
Activity (MGC-803 [30]): Active

IC50 [31]: 14000 nM
Compound: O=C1/C(=C/c2c(F)cccc2F)CNC/C1=C\c1c(F)cccc1F
